# Reference: US20230192764A1, “NOVEL DOPAMINE PRECURSORS” (Yissum Research Development Company of the Hebrew …, priority 2018, published 2023)
# Several values for one entry are separate records, joined by “and”; a condition that tells them apart may be missing. Identical values can stand only once.
# Columns and labels:
# [1] = tested on: human neuroblastoma cells (SH-SY5Y); assay: Viability of SH-SY5Y cells after auranofin (AuF) challenge, methylene blue staining; assay type: cell-based; conditions: SH-SY5Y pre-treated with 5 µM AuF 30 min, washed, compound added, viability 24 h later
# Protocol: Viability of cells pre-treated with 5 µM AuF for 30 min, washed and later exposed to increasing concentrations of SD-444, was determined 24 h later.
# A) The anti-apoptotic activity of SD-444 was tested on human neuronal cells SH-SY5Y. The cells were challenged by auranofin (AuF) that induces cellular stress by selectively blocking the thioredoxin reductase activity.
# SH-SY5Y cells were plated on 96-well plates and treated with AuF in different concentrations for 30 min. Then the cells were washed with PBS and treated as indicated. Twenty-four hours later, the cells were fixed with glutaraldehyde in final concentration of 0.5% for 10 min. Cells were washed 3 times with DDW dried overnight, and washed once with borate buffer (0.1 M, pH 8.5). The fixed cells were stained with 200 µl of 1% methylene blue dissolved in borate buffer for 1 h. After extensive washing and drying, the color was extracted with 200 µl of 0.1 M HCl for 1 h at 37° C. and absorbance was read in spectrophotometer at 630 nm.
# p38MAPK phosphorylation = assay: AuF-induced phosphorylation of p38MAPK in SH-SY5Y cells, western blot; assay type: cell-based, human; conditions: summary statement
# Protocol: Cells were treated with 10 µM AuF with or without SD-444. Phosphorylation was determined by western blot analysis. The amount of each band was quantitated by densitometry and plotted with a linear regression program normalized with β catenin (b-cat).
# In the assay, twenty to thirty micrograms of protein samples were loaded on 10-12% SDS-PAGE gels. The proteins were then transferred electrophoretically to nitrocellulose (Whatman, Germany). The blots were blocked by incubation for 1 h at RT in TBS-T (25 mM Tris-HCl pH 7.4, 0.9% NaCl and 0.02% Tween-20) with 4% Difco skim milk (BD, USA), and incubated over-night at 4° C. with the primary antibody: p-p38^MAPK (Thr180/Tyr182), rabbit mAb; p38, rabbit Ab.
# PC12 cells = assay: Phase microscopy of AuF-induced morphological changes in PC12 cells; assay type: cell-based; conditions: 2 µM AuF 30 min, washed, 150 µM SDA, 37° C., 4 hrs; listed as SDA
# Protocol: PC12 cells were treated with AuF with or without SD-444. Morphological changes were visualized 4 hr later (magnification x200).
# (FIG. 7A) Control untreated PC12 cells (FIG. 7B). PC12 cells were treated with AuF (2 µM; 30 min) lose their morphology and become rounded, as compared to untreated cells. […] Cells were treated with AuF (2 µM) for 30 min, washed and then SDA was added at 25 µM or 100 µM. Cells were visualized 4 hr later (magnification, 100 × and 400 x).
# C) Phase microscopy studies: The ability of SD-444 to rescue cells from oxidative stress was tested by exposing the PC12 to 2 µM auranofin for 30 min, and after washing incubated with 250 µM SD-444 at 37° C. for additional 4 hrs.
# B) Phase microscopy studies: The ability of SDA to rescue the cells from oxidative stress was tested by exposing the PC12 to auranofin 2 µM for 30 min with or without 150 µM SDA. AuF was washed after 30 min and 150 µM SDA was added and allowed to incubate at 37° C. for additional 4 hrs.
# [2] = Body weight monitoring in rotenone-treated rats; assay type: in vivo, Sprague Dawley rats; conditions: for Weight: individual rat, listed as SDA
# Protocol: (§1) 1-SD (Rotenone + SD); 2 - SDA (Rotenone + SDA); 3 - Control (Rotenone); 4 -Naive. The experimental groups were comprised of 6 animals for treated groups (1-3) and 2 animals in naive group (4). Rotenone was administrated 3.0 mg/kg intraperitoneally (IP) once a day in the morning (days 1-9). SD 33 mg/kg and SDA 33 mg/kg were administrated intraperitoneally once a day in the afternoon (days 1-9).
# Animals weight was measured before initiation of treatment (day 0), on days 4,7, 9 during the experiment and on termination day 11. On day 11, animals were sacrificed and brains were harvested for further histopathological analysis.
# (§2) IP administration: Rotenone was administrated to groups 1-3. Rotenone was injected intraperitoneally at a dose 3.0 mg/kg once a day in the morning (days 1-9). SD and SDA was administrated both at a dose of 33 mg/kg and were injected intraperitoneally once a day in the afternoon (days 1-9). Group number 4 was untreated, and remained as a naive group.
# [3] = tested on: Rotenone -induced model of Parkinson's disease (PD) in rats; assay: Rat rearing behavior (cylinder) test, rotenone model; assay type: in vivo, Sprague Dawley rats; conditions: for Cylinder rise and touch (number of rears in 2 min): individual rat, listed as SDA
# Protocol: as §1
# (§3) Rearing behavior, rotarod and beam walk tests were performed before initiation of treatment (day 0) as well as on days 4, 8 and 10 of the experiment.
# as §2
# Animals were placed in a clear glass cylinder (40 cm high and 20 cm diameter) and number of rears in 2 min was observed. Rear was considered as animals raised their hands above the shoulder and made contact with the wall of cylinder with their forelimb.
# [4] = tested on: Rotenone -induced model of Parkinson's disease (PD) in rats; assay: Rotarod behavior assay, rotenone model; assay type: in vivo, Sprague Dawley rats; conditions: for R.R (rotarod): individual rat, listed as SDA
# Protocol: as §1, §3, §2
# The test was used to evaluate motor coordination and balance. Apparatus was set to accelerate from 4 to 40 rpm in 300 s, and animals from same cage are placed in separate lanes on rod initially rotating at 4 rpm.
# [5] = tested on: Rotenone -induced model of Parkinson's disease (PD) in rats; assay: Rat beam walk test, rotenone model; assay type: in vivo, Sprague Dawley rats; conditions: for beam end time: individual rat, listed as SDA
# Protocol: as §1, §3, §2
# Animals were gently placed on 1 m long narrow aluminum beam facing one of the ends and allowed to walk to the end of the beam.
# [6] = average n=6, day 0 (before treatment)
# [7] = day 0 (before treatment), rotenone 3 mg/kg + compound 33 mg/kg IP
# [8] = rats, rotenone 3.0 mg/kg IP + compound 33 mg/kg IP, days 1-9
compound,measurement,setting,value
"CC(=O)NC(CS)C(=O)NC(Cc1cccc(O)c1O)C(N)=O (stereo not shown) [SDA-341, Acetyle-Cys-2,3 dihydroxyphenylalanine-amide]",neuronal cell-viability after AuF,[1],increase viability
same,p38 phosphorylation (AuF-triggered),p38MAPK phosphorylation,inhibit
same,morphology of AuF-treated PC12 cells,PC12 cells,normal morphology
same,"Weight, group average",[2]; [6],304.33 gr
same,"Weight, group average","[2]; average n=6, day 4",294.17 gr
same,"Weight, group average","[2]; average n=6, day 7",284.33 gr
same,"Weight, group average","[2]; average n=6, day 9",275.50 gr
same,"Weight, group average","[2]; average n=6, day 11",271.33 gr
same,Weight,[2]; [7],292 gr and 307 gr (2×) and 305 gr and 315 gr and 300 gr
same,Weight,"[2]; day 4, rotenone 3 mg/kg + compound 33 mg/kg IP",284 gr and 293 gr and 299 gr (2×) and 294 gr and 296 gr
same,Weight,"[2]; day 7, rotenone 3 mg/kg + compound 33 mg/kg IP",274 gr and 283 gr (2×) and 287 gr and 288 gr and 291 gr
same,Weight,"[2]; day 9, rotenone 3 mg/kg + compound 33 mg/kg IP",275 gr and 272 gr and 267 gr and 274 gr and 281 gr and 284 gr
same,Weight,"[2]; day 11, rotenone 3 mg/kg + compound 33 mg/kg IP",272 gr and 261 gr and 269 gr and 266 gr and 283 gr and 277 gr
same,"Cylinder rise and touch, group average",[3]; [6],12.83
same,"Cylinder rise and touch, group average","[3]; average n=6, day 4",12.67
same,"Cylinder rise and touch, group average","[3]; average n=6, day 8",14.83
same,"Cylinder rise and touch, group average","[3]; average n=6, day 10",12.50
same,Cylinder rise and touch (number of rears in 2 min),[3]; [7],18 (2×) and 9 and 12 (2×) and 8
same,Cylinder rise and touch (number of rears in 2 min),[3]; day 4,14 (2×) and 12 and 11 and 15 and 10
same,Cylinder rise and touch (number of rears in 2 min),[3]; day 8,15 and 19 (2×) and 8 and 12 and 16
same,Cylinder rise and touch (number of rears in 2 min),[3]; day 10,11 and 14 (2×) and 9 and 10 and 17
same,"Cylinder test, maintaining locomotor activity in Rotenone-treated rats",[3]; [8],very effective
same,"R.R (rotarod), group average",[4]; [6],285.17 s
same,"R.R (rotarod), group average","[4]; average n=6, day 4",286.33 s
same,"R.R (rotarod), group average","[4]; average n=6, day 8",266.33 s
same,"R.R (rotarod), group average","[4]; average n=6, day 10",227.00 s
same,R.R (rotarod),[4]; [7],278 sec and 300 sec (2×) and 269 sec and 290 sec
same,R.R (rotarod),[4]; day 4,298 sec and 274 sec and 263 sec and 300 sec (2×) and 283 sec
same,R.R (rotarod),[4]; day 8,281 s and 249 s and 234 s and 277 s and 268 s and 289 s
same,R.R (rotarod),[4]; day 10,270 s and 195 s and 123 s and 260 s and 243 s and 271 s
same,"rotarod test, motor dysregulation mediated by rotenone",[4]; [8],significantly reversed
same,"beam end time, group average",[5]; [6],9.50 s
same,"beam end time, group average","[5]; average n=6, day 4",17.50 s
same,"beam end time, group average","[5]; average n=6, day 8",25.67 s
same,"beam end time, group average","[5]; average n=6, day 10",20.33 s
same,beam end time,[5]; [7],7 s and 3 s and 10 s and 8 s and 12 s and 17 s
same,beam end time,[5]; day 4,12 s and 32 s and 14 s and 21 s and 10 s and 16 s
same,beam end time,[5]; day 8,16 s and 23 s and 52 s and 18 s and 19 s and 26 s
same,beam end time,[5]; day 10,22 s and 17 s and 34 s and 10 s and 21 s and 18 s
same,"Walk-beam test, reversal of rotenone induced imbalance",[5]; [8],very effective
